This note sets out measurements from PMC8494430, “Development of a fluorogenic ADAMTS-7 substrate” (Journal of Enzyme Inhibition and Medicinal Chemistry, 2021).

What all share (format): biochemical
One assay addresses T1, ADAMTS-1 (Homo sapiens, UniProt Q9UHI8).
T1 construct: made in house
T1 sequence (Q9UHI8 253-967): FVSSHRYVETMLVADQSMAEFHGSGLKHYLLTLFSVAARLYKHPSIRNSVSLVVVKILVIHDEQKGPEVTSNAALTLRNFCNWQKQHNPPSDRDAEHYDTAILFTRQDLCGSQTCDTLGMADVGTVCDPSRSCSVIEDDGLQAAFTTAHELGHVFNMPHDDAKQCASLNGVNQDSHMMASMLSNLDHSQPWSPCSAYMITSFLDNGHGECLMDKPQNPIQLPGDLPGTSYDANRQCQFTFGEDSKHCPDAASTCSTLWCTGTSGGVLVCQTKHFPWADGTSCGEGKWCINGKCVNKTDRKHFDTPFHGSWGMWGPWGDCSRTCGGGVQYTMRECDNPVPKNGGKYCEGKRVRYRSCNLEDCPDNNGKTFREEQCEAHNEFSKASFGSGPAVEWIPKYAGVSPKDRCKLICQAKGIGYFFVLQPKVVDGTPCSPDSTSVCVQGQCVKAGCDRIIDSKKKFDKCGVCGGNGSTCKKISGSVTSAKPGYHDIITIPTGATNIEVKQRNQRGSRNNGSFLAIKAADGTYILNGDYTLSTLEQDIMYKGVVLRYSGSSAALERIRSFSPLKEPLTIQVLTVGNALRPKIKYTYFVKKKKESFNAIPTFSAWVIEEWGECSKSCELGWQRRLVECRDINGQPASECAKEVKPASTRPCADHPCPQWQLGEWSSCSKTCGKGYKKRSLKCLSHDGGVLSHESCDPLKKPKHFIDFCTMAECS
Briefly: Cleavage of ATS7FP7 by ADAMTS-1. The conditions noted are these: ADAMTS-1 10 nM, ATS7FP7 40 μM. Here is the method:
(§1) All enzyme assays were conducted in TNC-B buffer (50 mM Tris- HCl, pH 7.5, 150 mM NaCl, 10 mM CaCl2, and 0.02% NaN3) at 37 °C in 384 well plates (Cat. No: 784900, Greiner Bio-One, Austria). To avoid the formation of inhibitor or peptide aggregates, the detergent Brij-35 (0.05%) was added to TNC-B[13]. For inhibition studies, stock solutions of chemical compounds were prepared in dimethyl sulfoxide (DMSO) (10 mM). These were further diluted at different concentrations in TNC-B and incubated with ADAMTS-1, ADAMTS-4, ADAMTS-5, ADAMTS-7 or ADAMTS-8 (10 nM) for 1 h at 37 °C. Blank samples were prepared using buffer only and the rate of cleavage for blank reactions was subtracted from the rates measured in the presence of enzyme. Upon addition of the indicated ADAMTS-7 FRET substrates (40 µM), the fluorescence was measured immediately using a FLUOstar Omega microplate reader (BMG Labtech, Germany) with an excitation filter wavelength of 485 nm and an emission filter wavelength of 520 nm.
(§2) Supplementary Figure 6: Cleavage of ATS7FP7 by members of the ADAMTS family. A) ATS7FP7 (40 μM) was incubated either with ADAMTS-1, -4, -5, -7, or -8 (10 nM). Fluorescence was detected (λex = 485 nm, λem = 520 nm) for 8 h at 37°C and reported as relative fluorescence units (RFU). The data are presented as average ± SEM (n=3) and were fitted with a linear regression. […]

In another assay the target is T2, ADAMTS-8 (Homo sapiens, UniProt Q9UP79).
T2 construct: made in house; host or cells: HEK293T
T2 sequence (Q9UP79 214-889): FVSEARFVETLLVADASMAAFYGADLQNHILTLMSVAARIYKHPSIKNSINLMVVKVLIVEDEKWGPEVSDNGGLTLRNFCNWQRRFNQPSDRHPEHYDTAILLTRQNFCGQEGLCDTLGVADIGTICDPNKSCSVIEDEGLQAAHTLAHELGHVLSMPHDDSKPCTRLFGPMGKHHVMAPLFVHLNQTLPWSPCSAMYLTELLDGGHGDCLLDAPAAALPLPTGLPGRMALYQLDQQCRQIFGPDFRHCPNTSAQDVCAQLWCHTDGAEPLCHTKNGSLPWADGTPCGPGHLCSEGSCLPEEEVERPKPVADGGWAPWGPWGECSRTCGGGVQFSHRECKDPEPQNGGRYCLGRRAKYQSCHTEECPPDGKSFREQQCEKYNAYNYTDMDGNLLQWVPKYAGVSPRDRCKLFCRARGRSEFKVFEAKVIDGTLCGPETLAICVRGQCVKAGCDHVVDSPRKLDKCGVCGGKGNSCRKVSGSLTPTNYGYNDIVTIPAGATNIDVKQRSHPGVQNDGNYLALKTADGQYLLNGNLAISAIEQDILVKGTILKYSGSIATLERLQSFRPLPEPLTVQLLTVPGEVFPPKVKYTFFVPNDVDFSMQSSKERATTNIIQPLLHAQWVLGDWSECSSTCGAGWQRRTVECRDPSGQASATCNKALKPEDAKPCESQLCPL
Briefly: Cleavage of ATS7FP7 by ADAMTS-8. The conditions noted are these: ADAMTS-8 10 nM, ATS7FP7 40 μM. Here is the method: as §1, §2

A further assay deals with T3, ADAMTS-5 (Homo sapiens, UniProt Q9UNA0).
T3 construct: made in house
T3 sequence (Q9UNA0 262-930): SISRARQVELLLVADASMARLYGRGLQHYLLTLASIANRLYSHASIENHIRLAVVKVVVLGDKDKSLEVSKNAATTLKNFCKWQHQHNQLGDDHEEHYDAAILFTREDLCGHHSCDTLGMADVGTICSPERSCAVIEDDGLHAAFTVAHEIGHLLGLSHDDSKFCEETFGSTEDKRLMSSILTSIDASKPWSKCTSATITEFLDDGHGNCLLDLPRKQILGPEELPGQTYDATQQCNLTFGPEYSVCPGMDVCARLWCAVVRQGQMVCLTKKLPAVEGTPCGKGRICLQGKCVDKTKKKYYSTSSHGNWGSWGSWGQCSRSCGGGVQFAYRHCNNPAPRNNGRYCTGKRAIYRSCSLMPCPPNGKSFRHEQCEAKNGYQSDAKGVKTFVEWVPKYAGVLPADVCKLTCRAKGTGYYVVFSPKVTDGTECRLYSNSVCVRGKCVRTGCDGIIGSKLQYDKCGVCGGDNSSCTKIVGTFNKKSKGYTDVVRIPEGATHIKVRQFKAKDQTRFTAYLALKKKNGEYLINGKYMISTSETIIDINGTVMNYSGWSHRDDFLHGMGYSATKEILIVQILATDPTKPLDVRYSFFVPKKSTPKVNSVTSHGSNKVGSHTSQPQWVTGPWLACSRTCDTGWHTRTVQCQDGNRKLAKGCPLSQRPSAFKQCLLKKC
The experiment in a line: Cleavage of ATS7FP7 by ADAMTS-5 (kinetic constants). As to conditions: cleavage of ATS7FP7 by ADAMTS-5 (10 nM), 37 °C; curve did not reach a proper plateau. Here is the method:
as §1, with “nm. […]” for “nm.”
Supplementary Figure 6: Cleavage of ATS7FP7 by members of the ADAMTS family. […] Fluorescence was detected (λex = 485 nm, λem = 520 nm) for 8 h at 37°C and reported as relative fluorescence units (RFU). […]

A word on the Km: it is the concentration of substrate that gives half-maximal velocity. What is called kcat is the number of substrate molecules converted per active site and unit of time at saturation. For “Glu-Ala-Ala-Ala-Arg↓Ala-Glu↓Ala-Ala-Ala-Lys [ATS7FP7]”, at ADAMTS-1, the “cleavage by ADAMTS-1” value is “neither ADAMTS-1 nor ADAMTS-8 were able to cleave ATS7FP7”. On ADAMTS-8, the “cleavage by ADAMTS-8” value is recorded as “neither ADAMTS-1 nor ADAMTS-8 were able to cleave ATS7FP7”. At ADAMTS-5, the Km worked out at 81 ± 24 µM and the kcat worked out at 0.225 ± 0.042 s⁻¹.
